Counter-ions that a name gives are not always drawn.
Tested on: GDF8 signaling (p-SMAD-3 (Ser423/425))
Assay: AlphaScreen SureFire SMAD3 (p-Ser423/425) assay, GDF8-stimulated cells (GDF pSMAD)
Type: cell-based
Conditions: Mus musculus, MPC-11, GDF8-stimulated pSMAD3, MPC11; tested as the salt form given; read-out: GDF pSMAD (MPC11) (μM), inhibition of GDF8 signaling

Row | IC50 [µM] | SMILES
1 | 13.7 | COc1cc(-c2ncccc2-c2ccc3ncnc(N)c3c2)c(C)cc1F [compound 1022, 6-(2-(4-fluoro-5-methoxy-2-methylphenyl)pyridin-3-yl)quinazolin-4-amine]
2 | 0.692 | Cc1cc(F)c(Cl)cc1-c1ncccc1-c1ccc2ncnc(N)c2c1 [compound 989, 6-(2-(5-chloro-4-fluoro-2-methylphenyl)pyridin-3-yl)quinazolin-4-amine]
3 | 0.728 | Cc1cc(-c2ncccc2-c2ccc3ncnc(N)c3c2)c(Cl)cc1F [compound 1012, 6-(2-(2-chloro-4-fluoro-5-methylphenyl)pyridin-3-yl)quinazolin-4-amine]
4 | 1.87 | Nc1ncnc2ccc(-c3cccnc3-c3ccc(F)c(Cl)c3F)cc12 [compound 978, 6-(2-(3-chloro-2,4-difluorophenyl)pyridin-3-yl)quinazolin-4-amine]
5 | 2.18 | Cc1cc(-c2cccnc2-c2ccc(F)c(Cl)c2)cc2c(N)ncnc12 [compound 985, 6-(2-(3-chloro-4-fluorophenyl)pyridin-3-yl)-8-methylquinazolin-4-amine]

Same assay, conditions: Mus musculus, MPC-11, MPC11; GDF8-stimulated; p-SMAD3 AlphaScreen; read-out: GDF pSMAD (MPC11) (inhibition of GDF8 signaling)

Row | SMILES | IC50 [µM]
6 | Cc1cc(-c2ncccc2-c2ccn3c(C(=O)NCCCN4CCCC4)ncc3c2)ccc1F [compound 278, 7-(2-(4-Fluoro-3-methylphenyl)pyridin-3-yl)-N-(3-(pyrrolidin-1-yl)propyl)imidazo[1,5-a]pyridine-3-carboxamide] | 2.23
7 | Cc1cc(-c2ncc(NCc3ccncc3)cc2-c2ccc3nccnc3c2)ccc1F [compound 245, 6-(4-Fluoro-3-methylphenyl)-N-(pyridin-4-ylmethyl)-5-(quinoxalin-6-yl)pyridin-3-amine] | 1.26
8 | Cc1ccc(F)c(-c2ncccc2-c2ccc3ncc(C(=O)NCCCN4CCCC4=O)n3c2)c1 [compound 725, 6-(2-(2-Fluoro-5-methylphenyl)pyridin-3-yl)-N-(3-(2-oxopyrrolidin-1-yl)propyl)imidazo[1,2-a]pyridine-3-carboxamide] | 0.465
9 | Cn1cnc2ccc(-c3cccnc3-c3cc(Cl)c(F)cc3F)cc21 [compound 784, 6-(2-(5-Chloro-2,4-difluorophenyl)pyridin-3-yl)-1-methyl-1H-benzo[d]imidazole] | 0.125
10 | Fc1cnc(-c2cccc(C(F)(F)F)c2)c(-c2ccn3ncnc3c2)c1 [compound 863, 7-(2-(3-((Difluoro-13-methyl)-12-fluoranyl)phenyl)-5-fluoropyridin-3-yl)-[1,2,4]triazolo[1,5-a]pyridine] | 5.89
11 | Cc1cc(-c2ncccc2-c2ccc3c(cnn3C(=O)OC[C@@H](N)Cc3c[nH]c4ccccc34)c2)ccc1F [compound 179, (S)-2-Amino-3-(1H-indol-3-yl)propyl 5-(2-(4-fluoro-3-methylphenyl)pyridin-3-yl)-1H-indazole-1-carboxylate Trifluoroacetic Acid Salt] | 0.337
12 | Cc1cc(-c2ncc(NCc3ccc(-c4cccnc4)nc3)cc2-c2ccc3ncsc3c2)ccc1F [compound 328, N-([2,3′-Bipyridin]-5-ylmethyl)-5-(benzo[d]thiazol-6-yl)-6-(4-fluoro-3-methylphenyl)pyridin-3-amine] | 2.5
13 | CCOC(=O)c1cnn2ccc(-c3cccnc3-c3ccc(F)c(C)c3)cc12 [compound 677, Ethyl 5-(2-(4-Fluoro-3-methylphenyl)pyridin-3-yl)pyrazolo[1,5-a]pyridine-3-carboxylate] | 0.562
14 | Cc1cc(-c2ncccc2-c2ccn3ncc(C(=O)NCCN)c3c2)ccc1F [compound 683, N-(2-Aminoethyl)-5-(2-(4-fluoro-3-methylphenyl)pyridin-3-yl)pyrazolo[1,5-a]pyridine-3-carboxamide] | 0.234
15 | Cc1cc(-c2ncccc2-c2ccc3ncnc(OC4CCN(c5ccncc5)CC4)c3c2)ccc1F [compound 447, 6-(2-(4-Fluoro-3-methylphenyl)pyridin-3-yl)-4-((1-(pyridin-4-yl)piperidin-4-yl)oxy)quinazoline] | 0.753
16 | CN1CCC(NC(=O)c2cnc3ccc(-c4cccnc4-c4cc(Cl)c(F)cc4F)cn23)CC1 [compound 723, 6-(2-(5-Chloro-2,4-difluorophenyl)pyridin-3-yl)-N-(1-methylpiperidin-4-yl)imidazo[1,2-a]pyridine-3-carboxamide] | 0.102
17 | Fc1ccc(Cl)cc1-c1ncccc1-c1ccn2nccc2c1 [compound 761, 5-(2-(5-Chloro-2-fluorophenyl)pyridin-3-yl)pyrazolo[1,5-a]pyridine] | 0.131
18 | Cc1cc(-c2ncccc2-c2ccn3ncc(C(=O)O)c3c2)ccc1F [compound 678, 5-(2-(4-Fluoro-3-methylphenyl)pyridin-3-yl)pyrazolo[1,5-a]pyridine-3-carboxylic acid] | 2.47
19 | COc1ccc(CNc2cnc(-c3ccc(F)c(C)c3)c(-c3ccc4ncsc4c3)c2)cc1OCC(N)=O [compound 352, 2-(5-(((5-(Benzo[d]thiazol-6-yl)-6-(4-fluoro-3-methylphenyl)pyridin-3-yl)amino)methyl)-2-methoxyphenoxy)acetamide] | 0.307

Now from value to molecule:

Row | IC50 [µM] | SMILES
20 | 5.78 | Cc1c(-c2cccnc2-c2ccc(F)c(Cl)c2)ccc2ncnn12 [compound 810, 6-(2-(3-Chloro-4-fluorophenyl)pyridin-3-yl)-5-methyl-[1,2,4]triazolo[1,5-a]pyridine]
21 | 14.3 | CCOCCCn1cnc2ccc(-c3cccnc3-c3cccc(C)c3)cc21 [Compound 39, 1-(3-Ethoxypropyl)-6-(2-m-tolylpyridin-3-yl)-1H-benzo[d]imidazole]
22 | 6.51 | Fc1ccc(-c2ncccc2-c2ccc3ncnc(Nc4cccnc4)c3c2)cc1Cl [compound 490, 6-(2-(3-Chloro-4-fluorophenyl)pyridin-3-yl)-N-(pyridin-3-yl)quinazolin-4-amine]
23 | 0.504 | Cc1cc(-c2ncccc2-c2ccc3ncccc3n2)ccc1F [compound 535, 2-(2-(4-Fluoro-3-methylphenyl)pyridin-3-yl)-1,5-naphthyridine]
24 | 3.63 | N#Cc1cnc2ccc(-c3cccnc3-c3ccc(F)c(F)c3)cn12 [compound 622, 6-(2-(3,4-Difluorophenyl)pyridin-3-yl)imidazo[1,2-a]pyridine-3-carbonitrile]
25 | 0.841 | Fc1ccc(-c2ncccc2-c2ccc3ncnn3c2)cc1C1CC1 [compound 217, 6-(2-(3-Cyclopropyl-4-fluorophenyl)pyridin-3-yl)-[1,2,4]triazolo[1,5-a]pyridine]
26 | 1.8 | Cc1cc(-c2ncccc2-c2ccc3c(N)noc3c2)ccc1F [compound 794, 6-(2-(4-Fluoro-3-methylphenyl)pyridin-3-yl)benzo[d]isoxazol-3-amine]
27 | 0.175 | Fc1ccc(-c2ncccc2-c2ccc3ncsc3n2)cc1Cl [compound 305, 5-(2-(3-Chloro-4-fluorophenyl)pyridin-3-yl)thiazolo[5,4-b]pyridine]
28 | 1.81 | CS(=O)(=O)Nc1cccc(-c2ncccc2-c2ccc3[nH]ncc3c2)c1 [Compound 76, 5-(2-(3-Methylsulfphonylaminophenyl)pyridin-3-yl)-1H-indazole]
29 | 1.12 | FC(F)(F)Oc1cccc(-c2ncccc2-c2ccn3ncnc3c2)c1 [compound 882, 7-(2-(3-(Trifluoromethoxy)phenyl)pyridin-3-yl)-[1,2,4]triazolo[1,5-a]pyridine]
30 | 0.551 | Nc1ncnc2ccc(-c3cccnc3-c3cccc(F)c3)cc12 [compound 461, 6-(2-(3-Fluorophenyl)pyridin-3-yl)quinazolin-4-amine]
31 | 0.366 | Cc1cc(-c2ncccc2-c2ccc3ncnc(Oc4cccnc4)c3c2)ccc1F [compound 442, 6-(2-(4-Fluoro-3-methylphenyl)pyridin-3-yl)-4-(pyridin-3-yloxy)quinazoline]
32 | 0.404 | Cc1cccc(-c2ncccc2-c2ccc3ncccc3n2)c1 [compound 536, 2-(2-(m-Tolyl)pyridin-3-yl)-1,5-naphthyridine]
33 | 0.206 | Fc1cc(F)c(-c2ncccc2-c2ccn3nccc3n2)cc1Cl [compound 918, 5-(2-(5-Chloro-2,4-difluorophenyl)pyridin-3-yl)pyrazolo[1,5-a]pyrimidine]
34 | 0.0853 | Cc1cccc(-c2ncccc2-c2ccc3ncsc3n2)c1 [compound 304, 5-(2-(m-Tolyl)pyridin-3-yl)thiazolo[5,4-b]pyridine]
35 | 0.228 | Clc1cccc(-c2ncccc2-c2ccc3nccn3n2)c1 [compound 936, 6-(2-(3-Chlorophenyl)pyridin-3-yl)imidazo[1,2-b]pyridazine]
36 | 8.14 | COc1ccnc2ccc(-c3cccnc3-c3cc(Cl)ccc3F)cc12 [compound 840, 6-(2-(5-Chloro-2-fluorophenyl)pyridin-3-yl)-4-methoxyquinoline]
37 | 4.86 | Nc1ccnc2ccc(-c3cccnc3-c3ccc(F)c(Cl)c3)cc12 [compound 837, 6-(2-(3-Chloro-4-fluorophenyl)pyridin-3-yl)quinolin-4-amine]
38 | 0.186 | Cc1cccc(-c2ncccc2-c2ccc3[nH]ncc3c2)c1 [Compound 68, 5-(2-m-Tolylpyridin-3-yl)-1H-indazole]
39 | 0.29 | Fc1ccc(Cl)cc1-c1ncccc1-c1ccc2ncnn2n1 [compound 955, 6-(2-(5-Chloro-2-fluorophenyl)pyridin-3-yl)-[1,2,4]triazolo[1,5-b]pyridazine]
40 | 8.38 | Cc1cc(-c2ncccc2-c2ccc3ncn(C(C)C)c3c2)ccc1F [Compound 48, 6-(2-(4-Fluoro-3-methylphenyl)pyridin-3-yl)-1-isopropyl-1H-benzo[d]imidazole]
41 | 3.96 | Cc1cc(Cl)cc(-c2ncccc2-c2ccc3ncnn3c2)c1 [compound 775, 6-(2-(3-Chloro-5-methylphenyl)pyridin-3-yl)-[1,2,4]triazolo[1,5-a]pyridine]
42 | 2.05 | Cc1cc(-c2ncccc2-c2ccc3ncc(C(C)O)n3c2)ccc1F (racemic) [compound 598, rac-1-(6-(2-(4-Fluoro-3-methylphenyl)pyridin-3-yl)imidazo[1,2-a]pyridin-3-yl)ethan-1-ol]
43 | 1.17 | Cc1cccc(-c2cccnc2-c2ccc3[nH]ncc3c2)n1 [compound 517, 5-(6-Methyl-[2,3′-bipyridin]-2′-yl)-1H-indazole]
